Test results as given in patent publication US9969698B2, “Quinoxalinyl-piperazinamide methods of use” (REXAHN PHARMACEUTICALS, INC., priority 2015, dated 2018).
Where two headings read alike, the source gives them in different places.

Experiments:
[1] = system: pooled human liver microsomes; assay: RX-5902 metabolism in liver microsomes with CYP450 isozyme-selective chemical inhibitors; format: in vitro ADME
Method: Two in vitro studies were performed to examine the involvement of specific cytochrome P450 (CYP450) isozymes in the in vitro metabolism of RX-5902. In the first study, the loss of RX-5902 was measured after incubation with expressed CYP450 isozymes (1A2, 2A6, 2B6, 2C8, 2C9, 2C19, 2D6, 3A4 and 3A5). […] In the second study, RX-5902 was incubated with pooled human liver microsomes in the presence of CYP450 isozyme-selective chemical inhibitors. The inhibitors tested were selective for 1A2, 2A6, 2B6, 2C8, 2C9, 2C19, 2D6, and 3A4/5.

[2] = system: human renal tumor xenografts (Caki-1); format: in vivo; conditions: oral; for TGI: 5 days on/2 days off, Day 21
From the text: (§1) The efficacy of RX-5902 in human cancer xenograft mouse models is examined. Female nude mice (nu/nu, Harlan or CRL: NU(NCr)-Foxn1^nu, Charles River), 9-10 weeks old, with a body weight (BW) range of 15-30 g on day 1 of the study, are fed ad libitum water (reverse osmosis, 1 ppm C1), and NIH 31 Modified and Irradiated Lab Diet® consisting of 18.0% crude protein, 5.0% crude fat, and 5.0% crude fiber. The mice are housed on irradiated Enrich-o'Cobs™ Laboratory Animal Bedding in static microisolators on a 12-hour light cycle at 20-22° C. (68-72° F.) and 40-60% humidity. The study complies with the recommendations of the Guide for, Care and Use of Laboratory Animals with respect to restraint, husbandry, surgical procedures, feed and fluid regulation, and veterinary care.
Various human tumor cell lines (e.g., HCT116, HT29, H460, H69, Caki-1, CaSki, MiaPaca2, BxPC3 and Colo 205 cells [ATCC, Manassas, Va., USA]) are cultured according to ATCC's instruction. The tumor cells are cultured in tissue culture flasks in a humidified incubator at 37° C., in an atmosphere of 5% CO2 and 95% air.
The cells are harvested during exponential growth and re-suspended with phosphate buffered saline. Each test animal receives a subcutaneous (s.c.) injection of 5×10^6 tumor cells into the right flank and tumor growth is monitored as the average tumor size approaches the target range of 80-300 mm^3. When tumors reach the target size mice are randomized into several groups (n=10-20) and treatment with various regimens of RX-5902 or a positive (e.g., gemcitabine) or negative control (e.g.; vehicle, saline) is initiated. Tumors and body weights are measured regularly until the study is terminated.
Tumors are measured in two dimensions using calipers, and volume is calculated using the formula:
[formula] where w=width and 1=length, in mm, of the tumor. Tumor weight may be estimated with the assumption that 1 mg is equivalent to 1 mm^3 of tumor volume.
Treatment begins on Day 1 in eight groups of mice (n=10-20/group) with established subcutaneous tumors of a particular cell line. Each group is treated according to the study design. All doses are adjusted per body weight. Animals in each group are divided for efficacy and sampling purposes. There are also groups designated to vehicle control and no treatment for sampling purposes.
[…] […] Percent tumor growth inhibition (% TGI) is defined as the difference between the MTV of the designated control group (vehicle administration) and the MTV of the drug-treated group, expressed as a percentage of the MTV of the control group: % TGI=[1−(MTVdrug treated/MTVcontrol)]×100 The data set for TGI analysis includes all animals in a group, except those that die due to treatment-related (TR) or non-treatment-related (NTR) causes. An agent that produces at least 60% TGI in this assay is considered to be potentially therapeutically active.
Animals are monitored individually for tumor growth until Day 71. […] The time to endpoint (TTE) for each mouse is calculated with the following equation:
[formula] where b is the intercept and m is the slope of the line obtained by linear regression of a log-transformed tumor growth data set. […] In instances in which the log-transformed calculated TTE precedes the day prior to reaching endpoint or exceeds the day of reaching tumor volume endpoint, a linear interpolation is performed to approximate TTE. Any animal determined to have died from treatment-related (TR) causes is assigned a TTE value equal to the day of death. […]

[3] = system: human pancreas tumor xenografts (MiaPaca-2); assay: Pancreatic cancer xenograft model; format: in vivo, mice; conditions: oral, 5ON/2OFF
From the text: as §1, with “The study complies with the recommendations of the Guide for, Care and Use of Laboratory Animals with respect to restraint, husbandry, surgical procedures, feed and fluid regulation, and veterinary care.” left out
The cells are harvested during exponential growth and re-suspended with phosphate buffered saline. Each test animal receives a subcutaneous (s.c.) injection of 5×10^6 tumor cells into the right flank and tumor growth is monitored as the average tumor size approaches the target range of 80-300 mm^3. […] Tumors and body weights are measured regularly until the study is terminated.
Tumors are measured in two dimensions using calipers, and volume is calculated using the formula: […]
Treatment efficacy is determined using data from Day 15. The MTV (n), the median tumor volume for the number of animals, n, on Day 15, is determined for each group. […]
Animals are monitored individually for tumor growth until Day 71. […] The time to endpoint (TTE) for each mouse is calculated with the following equation: […]

COc1cc(OC)cc(N2CCN(C(=O)Nc3nc4cc(F)ccc4nc3OC)CC2)c1 [RX-5902, 4-(3,5-dimethoxyphenyl)-N-(7-fluoro-3-methoxyquinoxalin-2-yl)piperazine-1-carboxamide]
inhibition of RX-5902 metabolism ([1]; in the presence of a CYP3A4/5-selective inhibitor (ketoconazole)): Marked inhibition | inhibition of RX-5902 metabolism ([1]; with inhibitors of the other isozymes (1A2, 2A6, 2B6, 2C8, 2C9, 2C19, 2D6)): no significant inhibition | TGI ([2]; 50 mg/kg daily): 80% | complete tumor regressions ([2]; 70 mg/kg daily): 1/10 | partial tumor regressions ([2]; 70 mg/kg daily): 6/10 | TGI ([2]; 70 mg/kg daily): 96% | overall survival of the animals ([2]; 50 and 70 mg/kg daily, both doses (P<0.0001)): extended the overall survival | TGD % ([3]; 50 mg/kg): 83%^ | TGD % ([3]; 70 mg/kg): 339%^
